Experimental data reported in patent publication US12466850B2, “Method for producing peptide compound” (priority 2019, dated 2025).

Experiments:
[1] = Test Example 2: Evaluation of the solubility in an organic solvent (HPLC); format: physicochemical; settings: for amount of the compound dissolved in 100 g of organic solvent: per 100 g solvent, 20° C., stirred one hour or longer
Description: In the measurement of the solubility, the compound obtained in Synthesis Example 8 was used.
(§1) A test compound was dissolved in toluene, cyclopentyl methyl ether, or ethyl acetate, and stirred at 20° C. for one hour or longer. The obtained solution was subjected to centrifugal filtration, and then the resultant filtrate was subjected to analysis under the below-shown conditions for measurement, determining an amount of the test compound dissolved.
(§2) • High performance liquid chromatography: HPLC-20A, manufactured by SHIMADZU Corporation • Column: XBridge C18 (2.5 μm, 4.6×100 mm) • Column oven temperature: 40° C. • Eluent: A=0.2 vol % aqueous solution of trifluoroacetic acid • B=0.2 vol % acetonitrile solution of trifluoroacetic acid • AB=50/50 (0 to 2 minutes), 50/50 to 0/100 (2 to 15 minutes), 0/100 (15 to 40 minutes) • Eluent flow rate: 1.0 mL/minute • Wavelength for detection: 210 nm [Results of Test]
The compound in Synthesis Example 8 was improved in the solubility in toluene, cyclopentyl methyl ether, and ethyl acetate, as compared to the compound in Reference Synthesis Example 3.

[2] = Test Example 1: Evaluation of the solubility in an organic solvent (saturated solution, HPLC); format: physicochemical; settings: for amount of the compound dissolved in 100 g of organic solvent: per 100 g solvent, 20° C., saturated, stirred one hour or longer; for solubility as compared to the compound in Reference Synthesis Example 3: in toluene, cyclopentyl methyl ether, and ethyl acetate
Description: In the measurement of the solubility, the compounds obtained in Synthesis Examples 2 and 6 and Reference Synthesis Example 3 were used.
as §1, with “acetate so as to be saturated,” for “acetate,”
as §2
The compounds in Synthesis Examples 2 and 6 were improved in the solubility in toluene, cyclopentyl methyl ether, and ethyl acetate, as compared to the compound in Reference Synthesis Example 3.

SMILES	amount of the compound dissolved in 100 g of organic solvent ([1]; cyclopentyl methyl ether) [g]	amount of the compound dissolved in 100 g of organic solvent ([1]; ethyl acetate) [g]	amount of the compound dissolved in 100 g of organic solvent ([1]; toluene) [g]	amount of the compound dissolved in 100 g of organic solvent ([2]; cyclopentyl methyl ether) [g]	amount of the compound dissolved in 100 g of organic solvent ([2]; ethyl acetate) [g]	amount of the compound dissolved in 100 g of organic solvent ([2]; toluene) [g]	solubility as compared to the compound in Reference Synthesis Example 3 [2]	solubility as compared to the compound in Reference Synthesis Example 3 ([1]; in toluene, cyclopentyl methyl ether, and ethyl acetate)
C[Si](C)(C)CCOC(=O)[C@H](Cc1ccccc1)NC(=O)[C@H](Cc1ccccc1)NC(=O)OCC1c2ccccc2-c2ccccc21 [Reference Synthesis Example 3, Fmoc-Phe-Phe-OTMSE, reference compound]	1.4	4.5	0.87	1.4	4.5	0.87	–	–
CC[Si](CC)(CCCOCC(CCC(C)CC(C)(C)C)C(C)CC(C)(C)C)CCOC(=O)[C@H](Cc1ccccc1)NC(=O)[C@H](Cc1ccccc1)NC(=O)OCC1c2ccccc2-c2ccccc21 (stereo partly drawn) [Synthesis Example 2, Fmoc-Phe-Phe-OFESE]	–	–	–	111	97	116	improved	–
CCCCCCCCCCCCCCCCCC[Si](C)(C)CCOC(=O)[C@H](Cc1ccccc1)NC(=O)[C@H](Cc1ccccc1)NC(=O)OCC1c2ccccc2-c2ccccc21 [Synthesis Example 6, Fmoc-Phe-Phe-ODMSE]	–	–	–	41	8.4	38	improved	–
CC(CCC(COCCC[Si](CCOC(=O)[C@H](Cc1ccccc1)NC(=O)[C@H](Cc1ccccc1)NC(=O)OCC1c2ccccc2-c2ccccc21)(c1ccccc1)c1ccccc1)C(C)CC(C)(C)C)CC(C)(C)C (stereo partly drawn) [Synthesis Example 8, Fmoc-Phe-Phe-OFPSE]	>140	>140	>140	–	–	–	–	improved
